Reference: patent US6194383A, “Lipopeptides from actinoplanes sp. with pharmacological action, process for their production and the use thereof” (Hoechst Aktiengesellschaft, priority 1993, dated 2001)

How the values were obtained:
Type in all cases: cell-based
relevant organisms = test: agar dilution test, MIC, in vitro activity (AB spectrum); details: Muller-Hinton agar, 37° C., 24 hours
Experimental: (§1) The sensitivity of relevant organisms to the A 1437 lipopeptides is determined by an agar dilution test. The agar used is Muller-Hinton agar to which, in the case of S. pyogenes and the Enterococci, 10% horse blood is added. The antibiotic-containing plates are inoculated using a multichannel inoculator (5×10^4 cfu/inoculation site of a stationary culture of the particular strain). The MIC values (minimum inhibitory concentration) are read off at 37° C. The MIC is defined as the concentration of the antibiotic at which no visible growth of the organisms is detectable after incubation for 24 hours. The amphomycin used as control was obtained from Boehringer Mannheim (Germany). Amphomycin can be obtained as fine chemical therefrom.

Enterococcus faecium VR2 = test: agar dilution test, MIC, vancomycin-resistant strains; details: Muller-Hinton agar with 10% horse blood, 37° C., 24 hours
Experimental: as §1

Enterococcus faecium VR1 = test: as above; details: Muller-Hinton agar with 10% horse blood, 37° C., 24 hours
Experimental: as §1

Streptococcus pyogenes = test: agar dilution test, MIC, vancomycin-resistant strains table; details: Muller-Hinton agar with 10% horse blood, 37° C., 24 hours
Experimental: as §1

[1] = 1st of 6 value columns, strain not given
[2] = 2nd of 6 value columns, strain head not printed
[3] = 3rd of 6 value columns, strain not given
[4] = 4th of 6 value columns, strain not given
[5] = 5th of 6 value columns, strain not given
[6] = 6th of 6 value columns, strain head not printed

Row | Substance | MIC, in vitro activity (AB spectrum), concentration (relevant organisms; [1]) | MIC, in vitro activity (AB spectrum), concentration (relevant organisms; [2]) | MIC, in vitro activity (AB spectrum), concentration (relevant organisms; [3]) | MIC, in vitro activity (AB spectrum), concentration (relevant organisms; [4]) | MIC, in vitro activity (AB spectrum), concentration (relevant organisms; [5]) | MIC, in vitro activity (AB spectrum), concentration (relevant organisms; [6]) | MIC, in vitro activity (vancomycin-resistant strains), concentration (Enterococcus faecium VR2) | MIC, in vitro activity (vancomycin-resistant strains), concentration (Enterococcus faecium VR1) | MIC, in vitro activity (vancomycin-resistant strains), concentration (Streptococcus pyogenes)
1 | Amphomycin [reference compound] | 0.195 µg/mL | 0.781 µg/mL | 0.391 µg/mL | 1.56 µg/mL | 0.391 µg/mL | 1.56 µg/mL | 4 µg/mL | 4 µg/mL | 2 µg/mL
2 | aiC13 -fatty acid-Asn-Dab-Pip-MeAsp-Asp-Gly-Asp-Gly-Dab-Val-Pro [A 1437 F] | 0.098 µg/mL | 0.391 µg/mL | 0.195 µg/mL | 1.56 µg/mL | 0.781 µg/mL | 1.56 µg/mL | 4 µg/mL | 4 µg/mL | 1 µg/mL
3 | iC14 -fatty acid-Asp-Dab-Pip-MeAsp-Asp-Gly-Asp-Gly-Dab-Val-Pro [A 1437 B] | 0.098 µg/mL | 0.195 µg/mL | 0.098 µg/mL | 0.195 µg/mL | 0.049 µg/mL | 0.391 µg/mL | 1 µg/mL | 1 µg/mL | 0.5 µg/mL
4 | iC14 -fatty acid-Asn-Dab-Pip-MeAsp-Asp-Gly-Asp-Gly-Dab-Val-Pro [A 1437 D] | 0.049 µg/mL | 0.195 µg/mL | 0.049 µg/mL | 0.781 µg/mL | 0.391 µg/mL | 0.781 µg/mL | 2 µg/mL | 2 µg/mL | 1 µg/mL
5 | ic13 -fatty acid-Asn-Dab-Pip-MeAsp-Asp-Gly-Asp-Gly-Dab-Val-Pro [A 1437 C] | 0.195 µg/mL | 0.781 µg/mL | 0.391 µg/mL | 3.13 µg/mL | 0.781 µg/mL | 3.13 µg/mL | 4 µg/mL | 4 µg/mL | 4 µg/mL
6 | aiC15 -fatty acid-Asn-Dab-Pip-MeAsp-Asp-Gly-Asp-Gly-Dab-Val-Pro [A 1437 H] | 0.049 µg/mL | 0.098 µg/mL | 0.049 µg/mL | 0.195 µg/mL | 0.049 µg/mL | 0.195 µg/mL | 1 µg/mL | 1 µg/mL | 0.5 µg/mL
7 | aiC15 -fatty acid-Asp-Dab-Pip-MeAsp-Asp-Gly-Asp-Gly-Dab-Val-Pro [A 1437 G] | 0.098 µg/mL | 0.195 µg/mL | 0.049 µg/mL | 0.088 µg/mL | 0.025 µg/mL | 0.195 µg/mL | 0.25 µg/mL | 0.25 µg/mL | 0.125 µg/mL
8 | iC13 -fatty acid-Asp-Dab-Pip-MeAsp-Asp-Gly-Asp-Gly-Dab-Val-Pro [A 1437 A] | 0.391 µg/mL | 0.781 µg/mL | 0.391 µg/mL | 1.56 µg/mL | 0.391 µg/mL | 3.13 µg/mL |  |  | 
